Assay results from the supplement of paper PMC10627819.

Experiments:
B. subtilis 168 [1] = experiment: fitness (endpoint OD595 vs no drug) (fraction); higher = more growth
Outline: (§1)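 Cultures at OD595 0.01 were dispensed into 384-well plates in TSB, LB Lennox or CY and incubated at 37 °C. Every 30 min for 14 h, OD595 was read and corrected by the first reading. Fitness is the optical density at entry into stationary phase relative to the robust mean of no-drug control wells, capped at 1.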

S. pneumoniae D39V [2] = experiment: as above
Outline: as §1

S. aureus DSM 20231 [3] = experiment: as above
Outline: as §1

B. subtilis 168 [4] = experiment: Bliss interaction score (quartile over a dose matrix) (fitness difference); higher = more antagonism (negative = synergy)
Outline: (§2)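 Growth was read as OD595 when cultures entered stationary phase, and each value was divided by the plate's robust no-drug mean and capped at 1. This normalised ratio is the fitness value, and fitness for each single drug came from the combination data. The Bliss score subtracts the expected fitness, taken as the product, from the observed fitness and is given as quartiles across technical, biological and donor/recipient replicates.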

S. pneumoniae D39V [5] = experiment: as above
Outline: as §2

S. aureus Newman [6] = experiment: as above
Outline: as §2

S. aureus DSM 20231 [7] = experiment: as above
Outline: as §2

S. aureus Newman [8] = experiment: fitness (endpoint OD595 vs no drug) (fraction); higher = more growth; details: main component drawn
Outline: as §1
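Wherever Bliss interaction score (quartile over a dose matrix) is given: first quartile when negative (synergy) and third quartile when positive (antagonism).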

COc1cccc2c1C(=O)c1c(O)c3c(c(O)c1C2=O)C[C@@](O)(C(=O)CO)C[C@@H]3O[C@H]1C[C@H](N)[C@H](O)[C@H](C)O1 [Doxorubicin] + CCC[C@@H]1C[C@@H](C(=O)N[C@@H]([C@H]2O[C@H](SC)[C@H](O)[C@@H](O)[C@H]2O)[C@@H](C)O)N(C)C1 [Lincomycin]
fitness
Details	partner 0.1 µg/mL	partner 0.2 µg/mL	partner 0.215 µg/mL	partner 0.4 µg/mL	partner 0.43 µg/mL	partner 0.8 µg/mL	partner 0.86 µg/mL
B. subtilis 168 [1], first compound 0.625 µg/mL	0.903	0.882	–	0.914	–	–	–
B. subtilis 168 [1], first compound 1.25 µg/mL	0.878	0.857	–	0.88	–	–	–
B. subtilis 168 [1], first compound 2.5 µg/mL	0.726	0.668	–	0.65	–	–	–
S. aureus DSM 20231 [3], first compound 0.625 µg/mL	0.816	0.757	–	–	–	–	–
S. aureus DSM 20231 [3], first compound 1.25 µg/mL	0.853	0.835	–	–	–	–	–
S. aureus DSM 20231 [3], first compound 2.5 µg/mL	0.875	0.73	–	–	–	–	–
S. pneumoniae D39V [2], first compound 0.25 µg/mL	–	0.57	0.75	0.337	0.626	0.0441	0.427
S. pneumoniae D39V [2], first compound 0.5 µg/mL	–	0.558	0.744	0.325	0.67	0.0345	0.372
S. pneumoniae D39V [2], first compound 1 µg/mL	–	0.465	0.792	0.278	0.664	0.0189	0.307

fitness, B. subtilis 168 [1], one replicate
Details	first compound 0.625 µg/mL	first compound 1.25 µg/mL	first compound 2.5 µg/mL
partner 0.8 µg/mL	0.959	0.831	0.638
partner 1.6 µg/mL	0.914	0.89	0.684

Details	Bliss interaction score
B. subtilis 168 [4]	0.0938
S. aureus DSM 20231 [7]	0.167
S. aureus Newman [6]	0.164
S. pneumoniae D39V [5]	-0.0622

C[C@@H]1O[C@@H]1P(=O)(O)O [Fosfomycin] + CC(=O)NC[C@H]1CN(c2ccc(N3CCOCC3)c(F)c2)C(=O)O1 [Linezolid]
fitness, one replicate
Details	first compound 0.781 µg/mL	first compound 1.562 µg/mL	first compound 3.124 µg/mL	first compound 6.248 µg/mL
B. subtilis 168 [1], partner 0.0625 µg/mL	–	0.726	0.606	0.368
S. aureus DSM 20231 [3], partner 1 µg/mL	0.0309	0.0297	0.0078	–

Details	fitness
B. subtilis 168 [1], first compound 1.562 µg/mL, partner 0.125 µg/mL	0.507
B. subtilis 168 [1], first compound 3.124 µg/mL, partner 0.125 µg/mL	0.437
B. subtilis 168 [1], first compound 6.248 µg/mL, partner 0.125 µg/mL	0.304
S. aureus DSM 20231 [3], first compound 0.781 µg/mL, partner 0.125 µg/mL	0.691
S. aureus DSM 20231 [3], first compound 0.781 µg/mL, partner 0.25 µg/mL	0.581
S. aureus DSM 20231 [3], first compound 0.781 µg/mL, partner 0.5 µg/mL	0.167
S. aureus DSM 20231 [3], first compound 1.562 µg/mL, partner 0.125 µg/mL	0.598
S. aureus DSM 20231 [3], first compound 1.562 µg/mL, partner 0.25 µg/mL	0.495
S. aureus DSM 20231 [3], first compound 1.562 µg/mL, partner 0.5 µg/mL	0.0991
S. aureus DSM 20231 [3], first compound 3.124 µg/mL, partner 0.125 µg/mL	0.459
S. aureus DSM 20231 [3], first compound 3.124 µg/mL, partner 0.25 µg/mL	0.339
S. aureus DSM 20231 [3], first compound 3.124 µg/mL, partner 0.5 µg/mL	0.0673
S. pneumoniae D39V [2], first compound 1.25 µg/mL, partner 0.105 µg/mL	0.839
S. pneumoniae D39V [2], first compound 1.25 µg/mL, partner 0.21 µg/mL	0.76
S. pneumoniae D39V [2], first compound 1.25 µg/mL, partner 0.4 µg/mL	0.314
S. pneumoniae D39V [2], first compound 1.25 µg/mL, partner 0.42 µg/mL	0.605
S. pneumoniae D39V [2], first compound 1.25 µg/mL, partner 0.8 µg/mL	0.138
S. pneumoniae D39V [2], first compound 2.5 µg/mL, partner 0.105 µg/mL	0.803
S. pneumoniae D39V [2], first compound 2.5 µg/mL, partner 0.2 µg/mL	0.626
S. pneumoniae D39V [2], first compound 2.5 µg/mL, partner 0.21 µg/mL	0.729
S. pneumoniae D39V [2], first compound 2.5 µg/mL, partner 0.4 µg/mL	0.315
S. pneumoniae D39V [2], first compound 2.5 µg/mL, partner 0.42 µg/mL	0.522
S. pneumoniae D39V [2], first compound 2.5 µg/mL, partner 0.8 µg/mL	0.132
S. pneumoniae D39V [2], first compound 5 µg/mL, partner 0.105 µg/mL	0.721
S. pneumoniae D39V [2], first compound 5 µg/mL, partner 0.2 µg/mL	0.564
S. pneumoniae D39V [2], first compound 5 µg/mL, partner 0.21 µg/mL	0.704
S. pneumoniae D39V [2], first compound 5 µg/mL, partner 0.4 µg/mL	0.311
S. pneumoniae D39V [2], first compound 5 µg/mL, partner 0.42 µg/mL	0.421
S. pneumoniae D39V [2], first compound 5 µg/mL, partner 0.8 µg/mL	0.136

Details	Bliss interaction score
B. subtilis 168 [4]	0.123
S. aureus DSM 20231 [7]	0.0569
S. aureus Newman [6]	-0.134
S. pneumoniae D39V [5]	0.0981

C[C@@H]1O[C@@H]1P(=O)(O)O [Fosfomycin] + CCCCCCCCCC(=O)N[C@@H]1[C@H]([C@@H]([C@H](O[C@H]1OC2=C3C=C4C=C2OC5=C(C=C(C=C5)[C@H]([C@H]6C(=O)N[C@@H](C7=C(C(=CC(=C7)O)OC8[C@H]([C@H]([C@@H]([C@H](O8)CO)O)O)O)C9=C(C=CC(=C9)[C@H](C(=O)N6)NC(=O)[C@@H]4NC(=O)[C@@H]1C2=CC(=CC(=C2)OC2=C(C=CC(=C2)[C@H](C(=O)N[C@H](CC2=CC(=C(O3)C=C2)Cl)C(=O)N1)N)O)O)O)C(=O)O)O[C@H]1[C@@H]([C@H]([C@@H]([C@H](O1)CO)O)O)NC(=O)C)Cl)CO)O)O [Teicoplanin]
fitness, S. aureus Newman [8]
Details	first compound 0.781 µg/mL	first compound 1.562 µg/mL	first compound 3.124 µg/mL
partner 0.1562 µg/mL	0.58	0.525	0.127
partner 0.3125 µg/mL	0.568	0.534	0.261
partner 0.625 µg/mL	0.663	0.582	0.348

fitness
Details	first compound 0.781 µg/mL	first compound 1.562 µg/mL	first compound 3.124 µg/mL
S. aureus DSM 20231 [3], partner 0.1562 µg/mL, main component drawn	0.863	0.698	0.538
S. aureus DSM 20231 [3], partner 0.3125 µg/mL, main component drawn	0.968	0.831	–
S. aureus DSM 20231 [3], partner 0.625 µg/mL, main component drawn	0.933	0.862	0.654
S. aureus Newman [8], partner 0.62 µg/mL, one replicate	0.715	0.682	0.522
S. aureus Newman [8], partner 1.24 µg/mL, one replicate	0.646	0.616	0.472
S. aureus Newman [8], partner 2.48 µg/mL, one replicate	0.461	0.234	0.0834

main component drawn
Details	Bliss interaction score
B. subtilis 168 [4]	-0.078
S. aureus DSM 20231 [7]	0.154
S. aureus Newman [6]	0.177
S. pneumoniae D39V [5]	0.065

C[C@@H]1O[C@@H]1P(=O)(O)O [Fosfomycin] + CCC[C@@H]1C[C@@H](C(=O)N[C@@H]([C@H]2O[C@H](SC)[C@H](O)[C@@H](O)[C@H]2O)[C@@H](C)O)N(C)C1 [Lincomycin]
fitness
Details	partner 0.1 µg/mL	partner 0.2 µg/mL	partner 0.215 µg/mL	partner 0.4 µg/mL	partner 0.43 µg/mL	partner 0.8 µg/mL	partner 0.86 µg/mL
B. subtilis 168 [1], first compound 1.562 µg/mL	0.689	0.707	–	0.705	–	–	–
B. subtilis 168 [1], first compound 3.124 µg/mL	0.616	0.591	–	0.61	–	–	–
B. subtilis 168 [1], first compound 6.248 µg/mL	0.469	0.429	–	0.476	–	–	–
S. aureus DSM 20231 [3], first compound 0.781 µg/mL	0.645	0.508	–	0.137	–	–	–
S. aureus DSM 20231 [3], first compound 1.562 µg/mL	0.515	0.32	–	0.0482	–	–	–
S. aureus DSM 20231 [3], first compound 3.124 µg/mL	0.387	0.0895	–	0.0388	–	–	–
S. pneumoniae D39V [2], first compound 1.25 µg/mL	–	0.606	0.812	0.365	0.698	0.0632	0.499
S. pneumoniae D39V [2], first compound 2.5 µg/mL	–	0.58	0.823	0.317	0.683	0.0611	0.45
S. pneumoniae D39V [2], first compound 5 µg/mL	–	0.511	0.785	0.285	0.691	0.0462	0.394

fitness, B. subtilis 168 [1], one replicate
Details	first compound 1.562 µg/mL	first compound 3.124 µg/mL	first compound 6.248 µg/mL
partner 0.8 µg/mL	0.719	0.572	0.466
partner 1.6 µg/mL	0.695	0.537	0.436

Details	Bliss interaction score
B. subtilis 168 [4]	0.0718
S. aureus DSM 20231 [7]	-0.158
S. aureus Newman [6]	-0.31
S. pneumoniae D39V [5]	0.0737
